According to patent EP4722201A1, “3-PHENYLISOXAZOLINE-5-CARBOXAMIDE COMPOUND, AND PREPARATION METHOD THEREFOR, HERBICIDAL COMPOSITION THEREOF AND USE THEREOF” (Jiangsu Flag Chemical Industry Co., Ltd, priority 2023, dated 2024):

Tests used:
Type in all cases: in vivo
[1] = test system: Eclipta prostrata; assay: Indoor herbicide activity determination, Seed Treatment; pre-emergence (soil spray); conditions: 60 g a.i./ha, read-out: Herbicidal activities (inhibition rate) Eclipta prostrata
In short: (§1)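 Readout is percent inhibition of fresh weight relative to control plants, determined 21 days after treatment. Soil was sprayed one day after sowing, in a spray tower at 300 mm height and 390 mL/min nozzle flow, onto sandy soil of pH 6.1 with 1% organic matter.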

[2] = test system: Eleusine indica; assay: as above
In short: as §1

[3] = test system: Cyperus iria; assay: as above; conditions: read-out: Herbicidal activities (inhibition rate) Cyperus iria; for inhibition at 60 g/ha: 60 g a.i./ha
In short: as §1

[4] = test system: Leptochloa chinensis; assay: as above
In short: as §1

[5] = test system: Eclipta prostrata; assay: Indoor herbicide activity determination, post-emergence (stem and leaf spray at 2-4 leaf stage); conditions: 504 h, determined 21 days later, read-out: Inhibition rate of fresh weight, Eclipta prostrata; for inhibition at 30 g/ha: 30 g a.i./ha; for inhibition at 60 g/ha: 60 g a.i./ha
In short: (§2)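 Potted weeds in sandy nutrient soil (pH 6.1, 1% organic matter) were grown in a constant-temperature illuminated room to the 2-4 leaf stage, then given a stem-and-leaf spray. Plants went back to the culture room once the spray had dried in shade. At 21 days, fresh weight inhibition % was calculated relative to untreated control plants.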

[6] = test system: Digitaria sanguinalis; assay: as above; conditions: 504 h, determined 21 days later, read-out: Inhibition rate of fresh weight, Digitaria sanguinalis; for inhibition at 30 g/ha: 30 g a.i./ha; for inhibition at 60 g/ha: 60 g a.i./ha
In short: as §2

[7] = test system: Cyperus iria; assay: as above; conditions: 504 h, determined 21 days later, read-out: Inhibition rate of fresh weight, Cyperus iria; for inhibition at 30 g/ha: 30 g a.i./ha; for inhibition at 60 g/ha: 60 g a.i./ha
In short: as §2

[8] = test system: Alopecurus japonicus; assay: Indoor herbicide activity determination, Seed Treatment; pre-emergence (soil spray)
In short: as §1

[9] = test system: Alopecurus myosuroides; assay: as above
In short: as §1

[10] = test system: Lolium multiflorum; assay: as above
In short: as §1

[11] = test system: Aegilops tauschii; assay: as above; conditions: 120 g a.i./ha, read-out: Herbicidal activities (inhibition rate) Aegilops tauschii
In short: as §1

[12] = test system: Digitaria sanguinalis; assay: as above; conditions: 60 g a.i./ha, read-out: Herbicidal activities (inhibition rate) Digitaria sanguinalis
In short: as §1

Compound | Herbicidal activities, Alopecurus japonicus (inhibition rate class) ([8]; Dosage 240 g a.i./ha) | Herbicidal activities, Alopecurus myosuroides (inhibition rate class) ([9]; Dosage 240 g a.i./ha) | Herbicidal activities, Lolium multiflorum (inhibition rate class) ([10]; Dosage 240 g a.i./ha) | Herbicidal activities, Eleusine indica (inhibition rate class) ([2]; Dosage 240 g a.i./ha) | Herbicidal activities, Leptochloa chinensis (inhibition rate class) ([4]; Dosage 240 g a.i./ha) | inhibition at 60 g/ha [5] | inhibition at 60 g/ha [6] | inhibition at 60 g/ha [7] | further results
C=C[C@]1(C(=O)N[C@H]2C=C[C@@H](C(=O)OCC(C)C)C2)CC(c2cc(F)cc(C(F)(F)F)c2)=NO1 [I-438] | – | – | – | – | – | – | – | – | inhibition at 60 g/ha [1]: 80 to 100%; Herbicidal activities, Eleusine indica (inhibition rate class) ([2]; Dosage 120 g a.i./ha): A (A indicates that the inhibition rate was greater than or equal to 80% to 100%); inhibition at 60 g/ha [3]: 80 to 100%; Herbicidal activities, Leptochloa chinensis (inhibition rate class) ([4]; Dosage 120 g a.i./ha): A (A indicates that the inhibition rate was greater than or equal to 80% to 100%); inhibition at 30 g/ha [5]: 60 to 80%; inhibition at 30 g/ha [6]: 60 to 80%; inhibition at 30 g/ha [7]: 60 to 80%
C=CC1(C(=O)N[C@H]2C[C@@H](C(=O)O)C2)CC(c2cc(F)cc(F)c2)=NO1 (stereo partly drawn) [I-1] | A (A indicates that the inhibition rate was greater than or equal to 80% to 100%) | A (A indicates that the inhibition rate was greater than or equal to 80% to 100%) | A (A indicates that the inhibition rate was greater than or equal to 80% to 100%) | A (A indicates that the inhibition rate was greater than or equal to 80% to 100%) | A (A indicates that the inhibition rate was greater than or equal to 80% to 100%) | 60 to 80% | 80 to 100% | 80 to 100% | inhibition at 120 g/ha [11]: 80 to 100%; inhibition at 120 g/ha ([3]; 120 g a.i./ha): 80 to 100%
C=C[C@]1(C(=O)N[C@H]2C[C@@H](C(=O)OC)C2)CC(c2cc(F)cc(F)c2)=NO1 [I-4] | – | – | – | – | – | – | – | – | Herbicidal activities, Alopecurus japonicus (inhibition rate class) ([8]; Dosage 120 g a.i./ha): A (A indicates that the inhibition rate was greater than or equal to 80% to 100%); inhibition at 60 g/ha [1]: 80 to 100%; Herbicidal activities, Alopecurus myosuroides (inhibition rate class) ([9]; Dosage 120 g a.i./ha): A (A indicates that the inhibition rate was greater than or equal to 80% to 100%); Herbicidal activities, Lolium multiflorum (inhibition rate class) ([10]; Dosage 120 g a.i./ha): A (A indicates that the inhibition rate was greater than or equal to 80% to 100%); inhibition at 60 g/ha [12]: 80 to 100%; Herbicidal activities, Eleusine indica (inhibition rate class) ([2]; Dosage 120 g a.i./ha): A (A indicates that the inhibition rate was greater than or equal to 80% to 100%); inhibition at 60 g/ha [3]: 80 to 100%; Herbicidal activities, Leptochloa chinensis (inhibition rate class) ([4]; Dosage 120 g a.i./ha): A (A indicates that the inhibition rate was greater than or equal to 80% to 100%); inhibition at 30 g/ha [5]: 60 to 80%; inhibition at 30 g/ha [6]: 80 to 100%; inhibition at 30 g/ha [7]: 80 to 100%
COC(=O)[C@H]1C[C@@H](NC(=O)C2(C(F)(F)F)CC(c3cc(F)cc(Cl)c3)=NO2)C1 (mixture of isomers) [I-225] | A (A indicates that the inhibition rate was greater than or equal to 80% to 100%) | A (A indicates that the inhibition rate was greater than or equal to 80% to 100%) | A (A indicates that the inhibition rate was greater than or equal to 80% to 100%) | A (A indicates that the inhibition rate was greater than or equal to 80% to 100%) | A (A indicates that the inhibition rate was greater than or equal to 80% to 100%) | 60 to 80% | 80 to 100% | 80 to 100% | –
C=CC1(C(=O)N[C@H]2C[C@@H](C(=O)O)C2)CC(c2cc(Cl)cc(Cl)c2)=NO1 (mixture of isomers) [I-37] | A (A indicates that the inhibition rate was greater than or equal to 80% to 100%) | A (A indicates that the inhibition rate was greater than or equal to 80% to 100%) | A (A indicates that the inhibition rate was greater than or equal to 80% to 100%) | A (A indicates that the inhibition rate was greater than or equal to 80% to 100%) | A (A indicates that the inhibition rate was greater than or equal to 80% to 100%) | 60 to 80% | 80 to 100% | 80 to 100% | –
O=C(N[C@H]1C[C@@H](C(=O)O)C1)C1(C(F)(F)F)CC(c2cc(Cl)cc(Cl)c2)=NO1 (relative stereo) [I-229] | A (A indicates that the inhibition rate was greater than or equal to 80% to 100%) | A (A indicates that the inhibition rate was greater than or equal to 80% to 100%) | A (A indicates that the inhibition rate was greater than or equal to 80% to 100%) | A (A indicates that the inhibition rate was greater than or equal to 80% to 100%) | A (A indicates that the inhibition rate was greater than or equal to 80% to 100%) | 60 to 80% | 80 to 100% | 80 to 100% | –
O=C(N[C@H]1C[C@@H](C(=O)O)C1)C1(C(F)(F)F)CC(c2cccc(F)c2)=NO1 (relative stereo) [I-268] | A (A indicates that the inhibition rate was greater than or equal to 80% to 100%) | A (A indicates that the inhibition rate was greater than or equal to 80% to 100%) | A (A indicates that the inhibition rate was greater than or equal to 80% to 100%) | A (A indicates that the inhibition rate was greater than or equal to 80% to 100%) | A (A indicates that the inhibition rate was greater than or equal to 80% to 100%) | 40 to 60% | 80 to 100% | 80 to 100% | –
COC(=O)[C@H]1C[C@@H](NC(=O)C2(C(F)(F)F)CC(c3cc(F)cc(OC(F)(F)F)c3)=NO2)C1 (relative stereo) [I-251] | A (A indicates that the inhibition rate was greater than or equal to 80% to 100%) | A (A indicates that the inhibition rate was greater than or equal to 80% to 100%) | A (A indicates that the inhibition rate was greater than or equal to 80% to 100%) | A (A indicates that the inhibition rate was greater than or equal to 80% to 100%) | A (A indicates that the inhibition rate was greater than or equal to 80% to 100%) | 60 to 80% | 80 to 100% | 80 to 100% | –
COC(=O)[C@H]1C[C@@H](NC(=O)C2(C(F)(F)F)CC(c3cc(Cl)cc(Cl)c3)=NO2)C1 (relative stereo) [I-231] | A (A indicates that the inhibition rate was greater than or equal to 80% to 100%) | A (A indicates that the inhibition rate was greater than or equal to 80% to 100%) | A (A indicates that the inhibition rate was greater than or equal to 80% to 100%) | A (A indicates that the inhibition rate was greater than or equal to 80% to 100%) | A (A indicates that the inhibition rate was greater than or equal to 80% to 100%) | 60 to 80% | 80 to 100% | 80 to 100% | –
C=CC1(C(=O)N[C@H]2C[C@@H](C(=O)OC)C2)CC(c2cc(F)cc(OC(F)(F)F)c2)=NO1 (mixture of isomers) [I-59] | A (A indicates that the inhibition rate was greater than or equal to 80% to 100%) | A (A indicates that the inhibition rate was greater than or equal to 80% to 100%) | A (A indicates that the inhibition rate was greater than or equal to 80% to 100%) | A (A indicates that the inhibition rate was greater than or equal to 80% to 100%) | A (A indicates that the inhibition rate was greater than or equal to 80% to 100%) | 60 to 80% | 80 to 100% | 80 to 100% | –
